According to ChEMBL document CHEMBL4419173, “Small-molecule inhibitors targeting g-protein-coupled rho guanine nucleotide exchange factors” (2014):
Activity calls are given as the source filed them. The calls are words filed in the database; no cut-off is given here.

Assays:
[1] = biological target: T1, RhoGEF 1/Transforming protein RhoA (Homo sapiens) (UniProt P61586+Q92888); experiment: Binding affinity to human LARG (765 to 1138 residues) DH-PH module expressed in mouse NIH/3T3 cells assessed as reduction in LARG binding to human full length RhoA (1 to 193 residues) by measuring relative LARG binding level at 2.5 uM in presence of 2.5 uM Rhosin/G04 pull-down assay (reference value: 1 No unit); assay type: cell-based
Mus musculus [2] = species on record: Mus musculus; experiment: Inhibition of RhoGEF in mouse NIH/3T3 cells assessed as inhibition of 10% calf serum-induced RhoA-GTP formation by measuring relative RhoA-GTP level at 50 uM incubated for 24 hrs by densitometry (reference value: 1); assay type: cell-based
[3] = biological target: T2, Rho guanine nucleotide exchange factor 12 (Homo sapiens, UniProt Q9NZN5); experiment: Inhibition of human LARG (765 to 1138 residues) RhoGEF binding to human full length RhoA (1 to 193 residues) in presence of Rhosin/G04
T2 sequence (Q9NZN5 whole entry, the tested form may be a part): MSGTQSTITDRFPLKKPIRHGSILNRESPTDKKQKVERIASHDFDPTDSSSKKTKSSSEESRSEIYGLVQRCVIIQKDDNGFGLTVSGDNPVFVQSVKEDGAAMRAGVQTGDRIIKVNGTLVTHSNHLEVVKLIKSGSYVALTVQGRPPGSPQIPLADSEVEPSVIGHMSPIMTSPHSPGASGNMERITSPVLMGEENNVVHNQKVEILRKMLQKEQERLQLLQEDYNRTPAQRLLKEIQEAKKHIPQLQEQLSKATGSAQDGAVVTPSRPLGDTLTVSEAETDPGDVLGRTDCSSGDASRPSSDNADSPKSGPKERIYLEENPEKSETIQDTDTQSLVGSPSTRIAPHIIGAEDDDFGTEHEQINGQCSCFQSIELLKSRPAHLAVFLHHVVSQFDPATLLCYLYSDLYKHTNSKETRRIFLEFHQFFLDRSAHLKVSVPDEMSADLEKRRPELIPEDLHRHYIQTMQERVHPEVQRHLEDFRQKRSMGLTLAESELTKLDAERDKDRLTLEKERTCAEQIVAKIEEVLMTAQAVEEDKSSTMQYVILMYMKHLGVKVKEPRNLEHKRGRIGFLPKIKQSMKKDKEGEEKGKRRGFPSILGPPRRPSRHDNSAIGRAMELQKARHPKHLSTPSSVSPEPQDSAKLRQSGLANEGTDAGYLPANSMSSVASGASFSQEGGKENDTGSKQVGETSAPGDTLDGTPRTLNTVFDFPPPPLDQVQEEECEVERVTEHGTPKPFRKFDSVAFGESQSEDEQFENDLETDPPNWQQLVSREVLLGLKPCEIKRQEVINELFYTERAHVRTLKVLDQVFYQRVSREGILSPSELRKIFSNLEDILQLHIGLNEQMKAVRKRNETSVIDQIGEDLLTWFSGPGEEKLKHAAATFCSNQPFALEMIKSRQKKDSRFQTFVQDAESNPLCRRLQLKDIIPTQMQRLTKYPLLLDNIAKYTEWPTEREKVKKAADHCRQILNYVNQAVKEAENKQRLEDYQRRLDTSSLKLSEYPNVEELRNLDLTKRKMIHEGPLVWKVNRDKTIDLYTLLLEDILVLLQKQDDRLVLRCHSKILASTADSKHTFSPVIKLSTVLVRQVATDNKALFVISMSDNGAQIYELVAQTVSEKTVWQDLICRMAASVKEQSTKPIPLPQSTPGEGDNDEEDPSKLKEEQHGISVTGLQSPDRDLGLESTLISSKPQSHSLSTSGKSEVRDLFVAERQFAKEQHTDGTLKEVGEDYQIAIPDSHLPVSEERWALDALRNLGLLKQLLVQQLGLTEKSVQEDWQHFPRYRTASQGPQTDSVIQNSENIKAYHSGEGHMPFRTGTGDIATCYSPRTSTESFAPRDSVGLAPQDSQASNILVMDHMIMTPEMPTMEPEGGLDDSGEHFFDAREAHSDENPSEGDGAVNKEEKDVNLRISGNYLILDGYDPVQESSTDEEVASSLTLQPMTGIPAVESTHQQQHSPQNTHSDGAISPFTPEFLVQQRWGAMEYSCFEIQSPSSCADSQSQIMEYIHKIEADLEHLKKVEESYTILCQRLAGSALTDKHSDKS

MCF7 [4] = experiment: Inhibition of RhoGEF in human MCF7 cells derived mammospheres assessed as inhibition of 10% calf serum-induced RhoA-GTP formation by measuring relative RhoA-GTP level incubated for 24 hrs by densitometry (reference value: 1); assay type: cell-based
MCF7 [5] = experiment: Inhibition of cell invasion of human MCF7 cells at 10 to 50 uM by Matrigel-coated transwell based assay; assay type: functional
Homo sapiens [6] = species on record: Homo sapiens; experiment: Inhibition of GST-tagged human TrioN (1284 to 1711 residues) RhoGEF-catalyzed guanine nucleotide-exchange reaction of human full length Rac1 (1 to 192 residues) by measuring inhibition of the GDP dissociation from Rac1 at 0.76 to 250000 nM by Alexa 647 fluorescence dye based GDP/GTP exchange assay
Mus musculus [7] = species on record: Mus musculus; experiment: Inhibition of RhoGEF in mouse NIH/3T3 cells assessed as inhibition of 10% calf serum-induced RhoA-GTP formation by measuring relative RhoA-GTP level at 2.5 uM in presence of 2.5 uM Rhosin/G04 incubated for 24 hrs by densitometry (reference value: 1); assay type: cell-based
[8] = biological target: T1, RhoGEF 1/Transforming protein RhoA (Homo sapiens); experiment: Inhibition of GFP-tagged human p115 RhoGEF DH-PH module expressed in mouse NIH/3T3 cells assessed as reduction in human full length RhoA (1 to 193 residues) interaction with p115 RhoGEF at 30 to 50 uM incubated for 1 hr by Western blot analysis based GST-RhoA pull-down assay; assay type: cell-based
MCF7 [9] = experiment: Inhibition of RhoGEF in human MCF7 cells derived mammospheres assessed as inhibition of 10% calf serum-induced RhoA-GTP formation by measuring relative RhoA-GTP level at 30 uM incubated for 24 hrs by densitometry (reference value: 1); assay type: cell-based
MCF7 [10] = experiment: Inhibition of RhoGEF in human MCF7 cells derived mammospheres assessed as inhibition of RhoA-mediated phospho-MLC formation at 10 uM incubated for 24 hrs by densitometry; assay type: cell-based
[11] = biological target: A-kinase anchor protein 13/Transforming protein RhoA (Homo sapiens) (UniProt P61586+Q12802); experiment: Inhibition of FLAG-tagged human LBC RhoGEF DH-PH module expressed in mouse NIH/3T3 cells assessed as reduction in human full length RhoA (1 to 193 residues) interaction with LBC RhoGEF at 10 to 50 uM incubated for 1 hr by Western blot analysis based His-RhoA pull-down assay; assay type: cell-based
MCF7 [12] = experiment: Inhibition of RhoGEF in human MCF7 cells derived mammospheres assessed as inhibition of 10% calf serum-induced RhoA-GTP formation at 10 uM incubated for 24 hrs by densitometry relative to control; assay type: cell-based
Mus musculus [13] = species on record: Mus musculus; experiment: Inhibition of RhoGEF in mouse NIH/3T3 cells assessed as inhibition of 10% calf serum-induced Cdc42-GTP formation by measuring relative Cdc42-GTP level at 50 uM in presence of 50 uM Rhosin/G04 incubated for 24 hrs by densitometry (reference value: 1); assay type: cell-based
Mus musculus [14] = species on record: Mus musculus; experiment: Inhibition of RhoGEF-mediated RhoA signaling in mouse NIH/3T3 cells assessed as reduction in 10% calf serum-induced stress fiber and focal complex formation 30 uM incubated for 24 hrs; assay type: cell-based
[15] = biological target: Triple functional domain protein (Homo sapiens, UniProt O75962); experiment: Binding affinity to GST-tagged human TrioN RhoGEF (1284 to 1711 residues) by microscale thermophoresis analysis
Mus musculus [16] = species on record: Mus musculus; experiment: Inhibition of RhoGEF in mouse NIH/3T3 cells assessed as inhibition of 10% calf serum-induced RhoA-GTP formation incubated for 24 hrs by densitometry; assay type: cell-based
Homo sapiens [17] = species on record: Homo sapiens; experiment: Inhibition of GST-tagged human TrioN RhoGEF (1284 to 1711 residues) expressed in mouse NIH/3T3 cells assessed as reduction in human full length Rac1 (1 to 192 residues) interaction with TrioN RhoGEF at 50 to 200 uM incubated for 1 hr by Western blot analysis based pull-down assay; assay type: cell-based
MCF7 [18] = experiment: Inhibition of mammospheres formation in human MCF7 cells at 2.5 to 15 uM in presence of 2.5 to 15 uM Rhosin/G04 incubated for 10 days; assay type: functional, cell-based
Mus musculus [19] = species on record: Mus musculus; experiment: Inhibition of RhoGEF in mouse NIH/3T3 cells assessed as inhibition of 10% calf serum-induced RhoA-GTP formation by measuring reduction in RhoA-GTP level at 5 uM in presence of 5 uM Rhosin/G04 incubated for 24 hrs by densitometry relative to control; assay type: cell-based
[20] = system: Rho-associated protein kinase 2 (Homo sapiens), O75116 [UNDEFINED MUTATION]; experiment: Inhibition of constitutively active ROCK2 mutant (unknown origin) expressed in mouse NIH/3T3 cells assessed as reduction in 10% calf serum-induced focal adhesion complex formation at 530 uM by anti-vinculin antibody staining based assay; assay type: cell-based
Rho-associated protein kinase 2 (Homo sapiens), O75116 [UNDEFINED MUTATION], sequence (O75116 whole entry, looked up, change not shown): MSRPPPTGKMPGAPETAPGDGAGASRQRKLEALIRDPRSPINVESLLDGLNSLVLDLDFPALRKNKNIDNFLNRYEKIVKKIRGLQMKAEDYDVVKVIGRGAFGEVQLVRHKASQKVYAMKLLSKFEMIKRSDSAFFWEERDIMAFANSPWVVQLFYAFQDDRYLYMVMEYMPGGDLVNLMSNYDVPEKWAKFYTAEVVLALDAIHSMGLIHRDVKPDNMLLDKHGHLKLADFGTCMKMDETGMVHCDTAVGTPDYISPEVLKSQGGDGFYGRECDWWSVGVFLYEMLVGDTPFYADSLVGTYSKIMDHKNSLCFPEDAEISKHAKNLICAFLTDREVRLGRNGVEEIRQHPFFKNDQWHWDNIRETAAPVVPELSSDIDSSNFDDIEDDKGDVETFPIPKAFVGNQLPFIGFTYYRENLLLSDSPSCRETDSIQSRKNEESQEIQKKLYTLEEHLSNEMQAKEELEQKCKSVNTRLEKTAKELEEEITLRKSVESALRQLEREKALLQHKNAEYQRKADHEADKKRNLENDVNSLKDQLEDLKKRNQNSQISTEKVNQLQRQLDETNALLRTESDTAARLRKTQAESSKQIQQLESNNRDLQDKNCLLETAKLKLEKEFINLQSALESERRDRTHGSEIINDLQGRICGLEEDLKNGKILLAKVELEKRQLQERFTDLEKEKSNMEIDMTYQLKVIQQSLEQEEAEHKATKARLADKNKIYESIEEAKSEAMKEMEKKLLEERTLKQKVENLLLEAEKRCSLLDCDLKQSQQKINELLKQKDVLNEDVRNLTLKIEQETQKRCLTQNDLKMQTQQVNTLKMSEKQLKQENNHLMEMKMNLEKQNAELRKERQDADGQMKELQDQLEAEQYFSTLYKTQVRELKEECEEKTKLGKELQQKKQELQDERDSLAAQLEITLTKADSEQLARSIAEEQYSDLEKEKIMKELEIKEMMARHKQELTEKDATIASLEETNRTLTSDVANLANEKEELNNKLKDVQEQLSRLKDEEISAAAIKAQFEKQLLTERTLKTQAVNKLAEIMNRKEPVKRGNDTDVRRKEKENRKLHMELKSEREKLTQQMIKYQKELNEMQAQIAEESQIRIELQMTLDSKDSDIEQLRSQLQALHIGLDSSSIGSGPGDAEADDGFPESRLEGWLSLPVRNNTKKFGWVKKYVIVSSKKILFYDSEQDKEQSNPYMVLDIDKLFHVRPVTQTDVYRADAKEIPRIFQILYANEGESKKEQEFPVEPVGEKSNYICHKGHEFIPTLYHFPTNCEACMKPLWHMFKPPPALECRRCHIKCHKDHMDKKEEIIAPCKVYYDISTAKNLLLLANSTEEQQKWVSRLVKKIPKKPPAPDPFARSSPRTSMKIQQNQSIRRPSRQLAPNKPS

MCF7 [21] = experiment: Inhibition of RhoGEF in human MCF7 cells derived mammospheres assessed as inhibition of RhoA-mediated phospho-MLC formation incubated for 24 hrs by densitometry; assay type: cell-based
[22] = biological target: T2, Rho guanine nucleotide exchange factor 12; experiment: Inhibition of human LARG (765 to 1138 residues) RhoGEF-catalyzed guanine nucleotide-exchange reaction of human full length RhoA (1 to 193 residues) by measuring inhibition of the GDP dissociation from RhoA by Alexa 647 fluorescence dye based GDP/GTP exchange assay
MCF7 [23] = experiment: Inhibition of RhoGEF in human MCF7 cells derived mammospheres assessed as inhibition of 10% calf serum-induced RhoA-GTP formation at 2.5 uM in presence of 2.5 uM Rhosin/G04 incubated for 24 hrs by densitometry relative to control; assay type: cell-based
Mus musculus [24] = species on record: Mus musculus; experiment: Inhibition of RhoGEF in mouse NIH/3T3 cells assessed as inhibition of 10% calf serum-induced RhoA-GTP formation by measuring relative RhoA-GTP level at 5 uM in presence of 5 uM Rhosin/G04 incubated for 24 hrs by densitometry (reference value: 1); assay type: cell-based
[25] = biological target: Intersectin-1 (Homo sapiens) (UniProt Q15811); experiment: Binding affinity to GST-tagged human intersectin-1 RhoGEF at 1 to 100000 nM by microscale thermophoresis analysis
Intersectin-1 (Homo sapiens), sequence (Q15811 whole entry): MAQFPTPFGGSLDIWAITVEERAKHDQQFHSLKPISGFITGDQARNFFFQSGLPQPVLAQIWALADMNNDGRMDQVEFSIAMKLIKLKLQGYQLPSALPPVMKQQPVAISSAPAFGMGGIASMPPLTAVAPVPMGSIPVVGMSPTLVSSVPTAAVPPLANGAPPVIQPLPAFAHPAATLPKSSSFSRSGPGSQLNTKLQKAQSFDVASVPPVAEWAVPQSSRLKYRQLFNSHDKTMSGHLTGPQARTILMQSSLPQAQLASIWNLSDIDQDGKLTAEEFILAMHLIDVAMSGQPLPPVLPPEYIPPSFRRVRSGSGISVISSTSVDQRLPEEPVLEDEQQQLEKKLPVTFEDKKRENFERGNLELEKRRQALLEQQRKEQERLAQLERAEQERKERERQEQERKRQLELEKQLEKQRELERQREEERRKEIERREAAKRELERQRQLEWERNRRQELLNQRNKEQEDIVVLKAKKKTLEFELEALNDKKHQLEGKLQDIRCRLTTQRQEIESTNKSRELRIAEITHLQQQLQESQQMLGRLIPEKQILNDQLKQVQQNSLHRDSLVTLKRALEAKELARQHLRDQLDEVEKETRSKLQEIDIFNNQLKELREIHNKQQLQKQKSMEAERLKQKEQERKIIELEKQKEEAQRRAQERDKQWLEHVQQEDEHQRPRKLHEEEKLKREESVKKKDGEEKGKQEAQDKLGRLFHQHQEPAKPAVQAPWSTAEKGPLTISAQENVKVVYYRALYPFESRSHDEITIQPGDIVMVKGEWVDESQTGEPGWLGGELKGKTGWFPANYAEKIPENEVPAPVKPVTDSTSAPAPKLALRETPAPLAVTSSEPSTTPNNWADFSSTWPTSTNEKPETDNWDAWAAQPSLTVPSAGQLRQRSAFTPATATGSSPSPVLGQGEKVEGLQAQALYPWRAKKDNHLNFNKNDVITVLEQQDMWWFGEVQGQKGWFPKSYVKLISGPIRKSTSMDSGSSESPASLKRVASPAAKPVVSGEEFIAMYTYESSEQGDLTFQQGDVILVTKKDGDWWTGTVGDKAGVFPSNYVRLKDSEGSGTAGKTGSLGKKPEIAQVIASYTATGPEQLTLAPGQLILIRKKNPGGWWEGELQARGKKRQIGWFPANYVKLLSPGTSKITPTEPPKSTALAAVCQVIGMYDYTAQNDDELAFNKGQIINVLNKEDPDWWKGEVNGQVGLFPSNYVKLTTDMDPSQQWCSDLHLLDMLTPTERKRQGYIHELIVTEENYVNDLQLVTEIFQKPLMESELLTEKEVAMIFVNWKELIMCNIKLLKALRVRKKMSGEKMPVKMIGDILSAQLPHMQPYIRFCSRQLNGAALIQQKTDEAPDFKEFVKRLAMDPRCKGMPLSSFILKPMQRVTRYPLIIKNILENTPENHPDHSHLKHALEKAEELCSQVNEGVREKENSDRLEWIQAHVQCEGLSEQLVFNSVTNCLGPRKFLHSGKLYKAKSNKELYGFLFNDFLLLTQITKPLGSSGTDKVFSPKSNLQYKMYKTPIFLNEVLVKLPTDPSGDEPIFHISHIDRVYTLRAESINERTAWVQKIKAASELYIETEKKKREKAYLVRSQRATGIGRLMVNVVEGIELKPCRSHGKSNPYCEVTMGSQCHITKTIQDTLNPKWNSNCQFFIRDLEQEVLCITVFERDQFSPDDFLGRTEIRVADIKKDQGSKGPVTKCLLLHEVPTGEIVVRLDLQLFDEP

Mus musculus [26] = species on record: Mus musculus; experiment: Inhibition of RhoGEF in mouse NIH/3T3 cells assessed as reduction in 10% calf serum-induced rhoA-mediated actin stress fiber formation at 10 uM by rhodamine-phalloidin staining based assay; assay type: cell-based

Cc1cccc(COc2cccc(/C=C3\C(=O)NN(c4ccccc4)C3=O)c2)c1
fold change (FC) [1]: 0.71 | fold change (FC) (Mus musculus [2]): 0.26 | IC50 [3]: 1 µM | inhibition (MCF7 [4]): Dose-dependent effect | inhibition (MCF7 [5]): Active | inhibition (Homo sapiens [6]): inactive | fold change (FC) (Mus musculus [7]): 1.26 | inhibition [8]: Active | fold change (FC) (MCF7 [9]): 0.15 | inhibition (MCF7 [10]): 50% | inhibition [11]: inactive | inhibition (MCF7 [12]): 50% | fold change (FC) (Mus musculus [13]): 1.27 | inhibition (Mus musculus [14]): Active | Kd [15]: 774 µM | inhibition (Mus musculus [16]): Dose-dependent effect | inhibition (Homo sapiens [17]): inactive | inhibition (MCF7 [18]): Active | inhibition (Mus musculus [19]): 80% | inhibition [20]: inactive | inhibition (MCF7 [21]): Dose-dependent effect | inhibition [22]: Dose-dependent effect | inhibition (MCF7 [23]): 70% | fold change (FC) (Mus musculus [24]): 0.46 | Activity [25]: inactive | inhibition (Mus musculus [26]): Active
